Data from patent US5190938A, “Derivatives of 2-hydroxythiophene and -furan fused with a nitrogen-containing ring and their application in therapy” (Sanofi, priority 1989, dated 1993).
Structures can show the parent of a compound that is named as a salt. Where two headings read alike, the source gives them in different places.

Key:
[1] = target: porcine pancreatic elastase (Sus scrofa, UniProt P00772); assay: In vitro inhibition of elastase enzymatic activity (hydrolysis of Suc-Ala-Ala-Pro-LeupNA), Table I; assay type: biochemical; settings: 25° C., pH 8.8, concentration in the final solution
Procedure: (§1) a) In vitro inhibition of elastase enzymatic activity.
(§2) The variation of the rate of hydrolysis of a substrate specific of elastases was studied in the presence and absence of the test compound according to a conventional technique. The experiments were performed with porcine pancreatic elastase, and human neutrophil elastase extracted from purulent sputum; the enzyme substrate was a chromogenic tetrapeptide, N-succinyl-L-alanyl-L-alanyl-[…]-L-leucyl-p-nitroanilide, designated Suc-Ala-Ala-Pro-LeupNA, which, on hydrolysis, liberates p-nitroaniline, the appearance of which in the medium is followed in a spectrophotometer; alpha1 -antitrypsin was used as a standard inhibitor. The experiments were performed at 25° C., the spectrophotometric measurement being made at 410 nm.
(§3) The solution of substrate was prepared by dissolving 5.8 mg of anilide in 20 ml of buffer solution containing 24.22 g/l of Tris-HCl with 754 mg/l of CaCl2, adjusted to pH 8.8.
(§4) The solution of enzyme in the same buffer was at a concentration of 0.1 g/l, while the solutions of test compound in the same buffer were at concentrations of between 0.1 mM and 0.01 μM.
(§5) 200 μl of solution of substrate, 75 μl of buffer solution and 200 μl of solution of the test compound, or of buffer solution in the case of the controls, were mixed in tubes. After 20 minutes at 25° C., the tube was placed in the recording spectrophotometer and 25 μl of the solution of enzyme were added to this medium; the change in the optical density ΔOD was recorded for 30 seconds.
(§6) The percentage inhibition is defined as the difference between the change in OD for the control sample and that for the test sample, divided by the change for the control and multiplied by 100. [formula]

human leucocyte elastase = target: T1, human leucocyte elastase (Homo sapiens, UniProt P08246); assay: In vitro inhibition of elastase enzymatic activity (hydrolysis of Suc-Ala-Ala-Pro-LeupNA), Table II; assay type: biochemical; settings: human leucocyte (neutrophil) elastase from purulent sputum; 25° C.; pH 8.8; concentration in the final solution
T1 construct: human neutrophil elastase extracted from purulent sputum; from tissue; host or cells: purulent sputum
T1 sequence (P08246 30-247 limits assumed): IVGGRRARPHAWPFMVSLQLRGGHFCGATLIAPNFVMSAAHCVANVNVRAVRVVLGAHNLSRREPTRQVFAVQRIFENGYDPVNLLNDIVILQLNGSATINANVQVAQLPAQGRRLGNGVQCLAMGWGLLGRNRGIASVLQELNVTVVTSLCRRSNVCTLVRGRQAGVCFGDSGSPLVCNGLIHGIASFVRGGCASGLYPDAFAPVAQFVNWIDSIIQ
Procedure: as §1, §2, §3, §4, §5, §6

platelet aggregation = assay: Platelet aggregation-inhibitory activity in rats (blood taken from treated animals, ADP or collagen added); assay type: in vivo; settings: Rattus norvegicus, po, orally
Source text: b) Platelet aggregation-inhibitory activity in rats.

[2] = ADP, read-out: percentage inhibition of aggregation, ADP
[3] = collagen, read-out: percentage inhibition of aggregation, collagen

Sequence of porcine pancreatic elastase (P00772 27-266): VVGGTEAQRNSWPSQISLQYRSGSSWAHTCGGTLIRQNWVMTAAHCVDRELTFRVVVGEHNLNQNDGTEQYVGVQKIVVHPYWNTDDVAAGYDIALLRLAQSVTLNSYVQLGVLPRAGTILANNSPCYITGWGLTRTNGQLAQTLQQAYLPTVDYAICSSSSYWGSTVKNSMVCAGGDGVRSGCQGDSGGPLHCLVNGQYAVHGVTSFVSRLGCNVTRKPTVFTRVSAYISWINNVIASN

Row | SMILES | IC50 [1] | IC50 (human leucocyte elastase) | inhibition at 100 mg/kg (platelet aggregation; [2]) | inhibition at 100 mg/kg (platelet aggregation; [3])
1 | CC(c1ccccc1)N1CCc2sc(OC(=O)C(C)(C)C)cc2C1 (racemic) [SR 27319] | 4.5 µM | 3.4 µM | – | –
2 | CCCC(=O)Oc1cc2c(s1)CCN(Cc1ccccc1Cl)C2 [PCR 4094] | 2 µM | 3.5 µM | – | –
3 | CC(C)(C)C(=O)Oc1cc2c(s1)CCN(Cc1ccccc1Cl)C2 [SR 26766, 5-(2-chlorobenzyl)-4,5,6,7-tetrahydrothieno[3,2-c]pyridyl-2 t-butyrate] | – | – | 61% | 62%
4 | CCCC(=O)Oc1cc2c(s1)CCN(Cc1ccc(Cl)cc1)C2 [SR 26767] | 4.8 µM | 3.4 µM | – | –
5 | CC(C)C(=O)Oc1cc2c(s1)CCN(Cc1ccccc1Cl)C2 [SR 26772] | 5.8 µM | 2.6 µM | – | –
6 | CC(C)(C)C(=O)Oc1cc2c(s1)CCN(Cc1ccccc1)C2 [SR 26827] | 9 µM | 3.4 µM | 48% | 21%
7 | CC(C)C(=O)Oc1cc2c(s1)CCNC2 [SR 26861, 4,5,6,7-Tetrahydrothieno[3,2-c]pyrid-2-yl isobutyrate, hydrochloride] | 6.4 µM | 2.6 µM | – | –
8 | COC(=O)C(c1ccccc1Cl)N1CCc2sc(OC(=O)C(C)C)cc2C1 (stereo not shown) [SR 26886] | 2.9 µM | 30 µM | – | –
9 | CC(=O)Oc1cc2c(s1)CCN(C(C(=O)N1CCCC1)c1ccccc1Cl)C2 (stereo not shown) [SR 26913] | 32 µM | – | – | –
10 | CC(=O)Oc1cc2c(s1)CC[N+]([O-])(C(C(=O)N1CCCC1)c1ccccc1Cl)C2 (stereo not shown) [SR 26914] | 25 µM | – | – | –
11 | CC(C)(C)C(=O)Oc1cc2c(o1)CCN(Cc1ccccc1Cl)C2 [SR 26938, 5-(2-chlorobenzyl)-4,5,6,7-tetrahydrofuro-[3,2-c]pyrid-2yl t-butyrate] | 3.6 µM | 3.1 µM | – | –
12 | CC(C)(C)C(=O)Oc1cc2c(s1)CC[N+]([O-])(Cc1ccc(Cl)cc1)C2 (stereo not shown) [SR 26977] | 2.5 µM | 1.8 µM | – | –
13 | CC(C)(C)C(=O)Oc1cc2c(s1)C[N+]([O-])(Cc1ccccc1Cl)CC2 (stereo not shown) [SR 26998] | 2.2 µM | 2.2 µM | – | –
14 | CC(C)(C)C(=O)Oc1cc2c(s1)CC[N+](C)(Cc1ccccc1Cl)C2 (stereo not shown) [SR 27168] | 1.6 µM | – | – | –
15 | COc1ccc(CN2CCc3sc(OC(=O)C(C)(C)C)cc3C2)cc1 [SR 27261] | 4.5 µM | 3.2 µM | – | –

More lines, in order of falling IC50 [1], values ahead:

Row | IC50 [1] | IC50 (human leucocyte elastase) | SMILES | inhibition at 100 mg/kg (platelet aggregation; [2]) | inhibition at 100 mg/kg (platelet aggregation; [3])
16 | 24 µM | – | CCOC(=O)Oc1cc2c(s1)CC[N+]([O-])(Cc1ccccc1Cl)C2 (stereo not shown) [SR 26894] | – | –
17 | 15 µM | 0.7 µM | CCC[N+]1([O-])CCc2sc(OC(=O)C(C)(C)C)cc2C1 (stereo not shown) [SR 27325] | – | –
18 | 10 µM | 3.2 µM | CC(C)(C)C(=O)Oc1cc2c(s1)CCNC2 [SR 26842, 4,5,6,7,-tetrahydrothieno[3,2-c]pyrid-2-yl t-butyrate] | – | –
19 | 10 µM | – | CC(C)(C)C(=O)Oc1cc2c(s1)CC[N+](C)([O-])C2 (stereo not shown) [SR 27165] | – | –
20 | 10 µM | 3 µM | CCCN1CCc2sc(OC(=O)C(C)(C)C)cc2C1 [SR 27318, 5-propyl-4,5,6,7-tetrahyirothieno[3,2-c]pyrid-2-yl t-butyrate] | – | –
21 | 10 µM | 2.6 µM | CC(c1ccccc1)[N+]1([O-])CCc2sc(OC(=O)C(C)(C)C)cc2C1 (stereo not shown) [SR 27354] | – | –
22 | 8 µM | 24 µM | CC(C)C(=O)Oc1cc2c(s1)CCN(Cc1ccccc1)C2 [SR 26829] | – | –
23 | 7 µM | 30 µM | CC(C)C(=O)Oc1cc2c(s1)CCN(Cc1ccc(Cl)cc1)C2 [SR 26769] | – | –
24 | 7 µM | 5.6 µM | CCCC(=O)Oc1cc2c(s1)CC[N+]([O-])(Cc1ccccc1Cl)C2 (stereo not shown) [SR 26832] | – | –
25 | 6 µM | 3.6 µM | CC(C)C(=O)Oc1cc2c(s1)CC[N+]([O-])(Cc1ccccc1Cl)C2 (stereo not shown) [SR 26833] | – | –
26 | 5 µM | 2.5 µM | CC(C)(C)C(=O)Oc1cc2c(s1)CC[N+]([O-])(Cc1ccccc1Cl)C2 (stereo not shown) [SR 26831] | – | –
27 | 4 µM | – | CC(C)C(=O)Oc1cc2c(s1)CN(Cc1ccccc1Cl)CC2 [SR 26862] | – | –
28 | 3.6 µM | 2.6 µM | CN1CCc2sc(OC(=O)C(C)(C)C)cc2C1 [SR 26984, 5-methyl-4,5,6,7-tetrahydrothieno[3,2-c]pyrid-2-yl t-butyrate] | – | –
29 | 2.2 µM | 2.3 µM | CC(C)(C)C(=O)Oc1cc2c(s1)CC[N+]([O-])(Cc1ccccc1)C2 (stereo not shown) [SR 26986] | – | –
30 | 1.7 µM | 3.1 µM | CC(C)(C)C(=O)Oc1cc2c(o1)CC[N+]([O-])(Cc1ccccc1Cl)C2 (stereo not shown) [SR 26993] | – | –
31 | 1 µM | 2.6 µM | COc1ccc(C[N+]2([O-])CCc3sc(OC(=O)C(C)(C)C)cc3C2)cc1 (stereo not shown) [SR 27262] | – | –
